Measured values taken from EP0059606A1, “Benzothiopyrano(2,3-d)-v-triazole derivatives and pharmaceutical compositions containing them” (BEECHAM GROUP PLC, priority 1981, dated 1982).

Tested on: rat PCA
Test: Passive cutaneous anaphylaxis (PCA) in rats
Type: in vivo
Details: iv, 0 h, carrier PBS with NaHCO3, time 0 mins between administration and antigen challenge
Method: Serum containing heat labile homocytotropic antibody was raised in rats to crystallised ovalbumin (Grade 3 Sigma) by the Method of I. Mota (Immunology 7, 681 (1964)) using Bordetella pertussis vaccine ([…] Burroughs Welcome) as adjuvant.
Passive cutaneous anaphylaxis (PCA) was carried out by a method based on that of Ovary and Bier, (Proc. Soc. Exp. Bio. Med., 81; 584 (1952)) as modified by Goose and Blair (Immunology, 16, 749 (1969)) Male Sprague Dawley rats 230 - 340 gm were given 0.1 ml of each of six two fold serial dilutions of pooled antiserum in 0.9% saline (Polyfusor Boots) injected intradermally into separate sites on their shaved backs. 72 Hours later the rats were challenged by intravenous injection of 0.3 ml of a 1% solution of ovalbumin in isotonic saline buffered with 0.05M, pH 7.2 Sorenson Buffer (Bactohaemagglutination buffer Difco Laboratories), mixed with 0.2 ml of a 5% solution of Pontamine Sky Blue (6 BX C.l. 24410 Raymond A Lamb) in isotonic saline. The rats were killed after 20 minutes and the diameter of the blue wheals at the antibody injection sites was measured on the outer surface of the skin. The starting dilution of the serum was adjusted so that there was no response, after challenge, at the injection site of the highest dilution and a maximum response at the lowest dilutions. Typically, six twofold serial dilutions of the serum from 1/4 to 1/128 were used.
Compounds were tested for their ability to reduce the diameter of the wheals at those intradermal sites which in control animals gave less than maximum response. Each dose of the compounds was administered to six rats at a measured time prior to intravenous challenge with ovalbumin. Control groups of six rats were given the same volume (0.2 ml: 100g^-1)of carrier fluid at the same time prior to the challenge.
The results were calculated as follows: % inhibition of PCA = 100 (1 - a/b) where a = the sum of the diameters of the wheals produced in the test animal at the sites of antibody dilutions as used in control groups and b = the mean sum of the diameters of the wheals produced in the control group of animals at those antibody sites where at least five out of six of the animals gave less than maximum response. A typical variation in the control group of animals was SEM+ 6%.

Structure (SMILES) | inhibition in vivo at 0.5 mg/kg [%] | inhibition in vivo at 2 mg/kg [%] | inhibition in vivo at 1 mg/kg [%] | inhibition in vivo at 10 mg/kg [%]
O=c1c2ccccc2[s+]([O-])c2nn[nH]c12 (racemic) [Example 9b, 9-Oxo-lH,9H-benzothiopyrano[2,3-dl-v-triazole-4-oxide] | 30 | 61 | – | –
O=c1c2ccccc2sc2nn[nH]c12 [Example 1f, 9-Oxo-1H,9H-benzothiopyrano[2,3-d]-v-triazole] | – | – | 35 | 90
O=C1c2ccccc2S(=O)(=O)c2nn[nH]c21 [Example 2b, 9-Oxo-1H,9H-benzothiopyrano[2,3-d]-v-triazole-4,4-dioxide] | – | – | – | 68
Cc1ccc2sc3nn[nH]c3c(=O)c2c1 [Example 3d, 7-Nethyl-9-oxo-1H,9H-benzothiopyrano[2,3-d]-v-triazole] | – | – | – | 42
Cc1ccc2c(c1)C(=O)c1[nH]nnc1S2(=O)=O [Example 4b, 7-Methyl-9-oxo-IH, 9H-benzothiopyrano[2,3-d]-v-triazole-4,4-dioxide] | – | – | – | 65
Cc1cc2sc3nn[nH]c3c(=O)c2cc1C [Example 6d, 6,7-Dimethyl-9-oxo-1H,9H-benzothiopyrano[2,3-d]-v-triazole] | 65 | 90 | 86 | –
Cc1cc2c(cc1C)S(=O)(=O)c1nn[nH]c1C2=O [Example 7b, 6,7-Dimethyl-9-oxo-lH,9H-benzothiopyrano[2,3-d]-v-triazole-4,4-dioxide] | 56 | 74 | 59 | –
COc1ccc2sc3nn[nH]c3c(=O)c2c1 [Example 8d, 7-Methoxy-9-oxo-lH,9H-benzothiopyrano[2,3-dl-v-triazole] | 34 | 58 | – | –
